# pIC50: −log10 of the molar value. Where two headings read alike, the source gives them in different places.
# Tests used:
# [1] = target: T1, full-length beta-Catenin (Uniprot ID P35222) (Homo sapiens, UniProt P35222); experiment: Fluorescence polarization IC50 (beta-catenin / 5FAM-TCF4 10-53 competition); type: binding
# T1 construct: 10 nM full-length beta-Catenin (Uniprot ID P35222)
# T1 sequence (P35222 1-781): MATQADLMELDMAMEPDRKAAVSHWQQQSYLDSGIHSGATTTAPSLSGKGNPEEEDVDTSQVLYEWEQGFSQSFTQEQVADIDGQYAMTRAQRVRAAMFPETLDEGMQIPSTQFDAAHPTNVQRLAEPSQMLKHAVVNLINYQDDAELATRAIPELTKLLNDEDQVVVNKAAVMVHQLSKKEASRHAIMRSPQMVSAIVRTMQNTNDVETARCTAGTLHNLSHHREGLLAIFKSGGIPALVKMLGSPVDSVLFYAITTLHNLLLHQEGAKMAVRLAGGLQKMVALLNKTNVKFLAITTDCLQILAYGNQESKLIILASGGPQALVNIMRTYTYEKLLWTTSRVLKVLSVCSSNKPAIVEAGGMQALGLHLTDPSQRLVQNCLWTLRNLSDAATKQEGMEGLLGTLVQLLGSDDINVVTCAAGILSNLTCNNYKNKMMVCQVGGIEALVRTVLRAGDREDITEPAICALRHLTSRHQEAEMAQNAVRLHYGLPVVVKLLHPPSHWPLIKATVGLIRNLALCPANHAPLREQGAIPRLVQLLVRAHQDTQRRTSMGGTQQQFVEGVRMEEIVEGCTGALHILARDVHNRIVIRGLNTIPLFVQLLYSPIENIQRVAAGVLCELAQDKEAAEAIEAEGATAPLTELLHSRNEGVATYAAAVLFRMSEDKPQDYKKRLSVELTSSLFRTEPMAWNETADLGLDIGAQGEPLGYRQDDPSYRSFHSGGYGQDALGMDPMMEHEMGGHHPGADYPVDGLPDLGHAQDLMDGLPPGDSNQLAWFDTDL
# Solubility in PBS = type: physicochemical
# Outline: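 Steps: ultracentrifuge the peptide PBS solution, inject the supernatant on HPLC, inject a 50 μM peptide DMSO solution as reference, then calculate solubility as area ratio (PBS/DMSO) × 50 uM.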
# CHI Log D procedure = type: physicochemical; conditions: for chromatographic logD: pH 7.4, CHI Log D; for CHI Log D: pH 7.4
# [2] = fluorescence polarization, read-out: beta-Catenin FP IC50
# [3] = fluorescence polarization, beta-catenin, read-out: FP EC50
Structure (SMILES),"pIC50 [1, 2]",Solubility (Solubility in PBS),chromatographic logD (CHI Log D procedure),pIC50 ([1]; read-out: beta-Catenin FP IC50),Solubility (Solubility in PBS; Solubility (uM)),pIC50 ([1]; read-out: FP EC50),CHI Log D (CHI Log D procedure),"pIC50 ([1]; Table E2-1, read-out: beta-Catenin FP IC50)","pIC50 [1, 3]"
"CCCC[C@@H]1NC(=O)[C@H](CC(=O)O)NC(=O)[C@]2(CC=CCCCC3(CCCC=CCCCCCC[C@@](C)(C(=O)N[C@@H](Cc4ccccc4)C(=O)N[C@@H](Cc4csc5ccccc45)C(=O)N[C@@H](CCC(N)=O)C(N)=O)NC(=O)[C@H](C)NC(=O)[C@H](Cc4ccccc4)NC(=O)[C@H](C)NC(=O)[C@H](C)NC(=O)[C@H](CCC(=O)O)NC(=O)[C@H](CC(=O)O)NC3=O)NC1=O)CCCN2C(C)=O (stereo partly drawn) [I-411, Ac-PL3-Asp-nLeu-B5-Asp-Glu-Ala-Ala-Phe-Ala-S8-Phe-BztA-Gln-NH2]",6.72,50 µM,2.57,,,,,,
"CC(=O)N1CCC[C@]12CC=CCCCC1(CCCC=CCCCCCC[C@@](C)(C(=O)N[C@@H](Cc3ccccc3Cl)C(=O)N[C@@H](Cc3csc4ccccc34)C(=O)N[C@@H](CCC(N)=O)C(N)=O)NC(=O)[C@H](CC(N)=O)NC(=O)[C@H](Cc3ccccc3)NC(=O)[C@H](C)NC(=O)[C@H](C)NC(=O)[C@H](CCC(=O)O)NC(=O)[C@H](CC(=O)O)NC1=O)NC(=O)[C@H](C)NC(=O)[C@H](CC(=O)O)NC2=O (stereo partly drawn) [I-435, Ac-PL3-Asp-Ala-B5-Asp-Glu-Ala-Ala-Phe-Asn-S8-2C1F-BztA-Gln-NH2]",7.15,50 µM,2.13,,,,,,
"CC(=O)N1CCC[C@]12CC=CCCCC1(CCCC=CCCCOC(=O)N3CC[C@@](C(=O)N[C@@H](Cc4ccsc4)C(=O)N[C@@H](Cc4csc5ccccc45)C(=O)N[C@@H](CCC(N)=O)C(N)=O)(C3)NC(=O)[C@H](CC(N)=O)NC(=O)[C@H](Cc3cscn3)NC(=O)[C@H](C)NC(=O)[C@H](C)NC(=O)[C@H](CC(=O)O)NC(=O)[C@H](CC(=O)O)NC1=O)NC(=O)[C@H](CC(C)(C)C)NC(=O)[C@H](CC(=O)O)NC2=O (stereo partly drawn) [I-812, Ac-PL3-Asp-Npg-B5-Asp-Asp-Ala-Ala-4Thz-Asn-PyrS2-3Thi-BztA-Gln-NH2]",,,1.9,7.48,47 µM,,,,
"CC[C@H](C)[C@@H]1NC(=O)[C@H](CC(=O)O)NC(=O)[C@]2(CC=CCCCC3(CCCC=CCCCCCC[C@@](C)(C(=O)N[C@@H](Cc4ccccc4)C(=O)N[C@@H](Cc4csc5ccccc45)C(=O)N[C@@H](CCC(N)=O)C(N)=O)NC(=O)[C@H](CCC(N)=O)NC(=O)[C@H](Cc4ccccc4)NC(=O)[C@H](CCC(N)=O)NC(=O)[C@H](C)NC(=O)[C@H](CCC(=O)O)NC(=O)[C@H](CC(=O)O)NC3=O)NC1=O)CCCN2C(C)=O (stereo partly drawn) [I-663, Ac-PL3-Asp-Ile-B5-Asp-Glu-Ala-Gln-Phe-Gln-S8-Phe-BztA-Gln-NH2]",7.37,,1.8,,42 µM,,,,
"CC(=O)N1CCC[C@]12CC=CCCCC1(CCCC=CCCCOC(=O)N3CC[C@@](C(=O)N[C@@H](Cc4cccs4)C(=O)N[C@@H](Cc4csc5ccccc45)C(=O)N[C@@H](Cc4c[nH]cn4)C(N)=O)(C3)NC(=O)[C@H](CC(N)=O)NC(=O)[C@H](Cc3ccccc3)NC(=O)[C@H](C)NC(=O)[C@H](C)NC(=O)[C@H](CC(=O)O)NC(=O)[C@H](CC(=O)O)NC1=O)NC(=O)[C@H](CC(C)(C)C)NC(=O)[C@H](CC(=O)O)NC2=O (stereo partly drawn) [I-779, Ac-PL3-Asp-Npg-B5-Asp-Asp-Ala-Ala-Phe-Asn-PyrS2-2Thi-BztA-His-NH2]",,,2.12,8.30,44 µM,,,,
"CC(=O)N1CCC[C@]12CC=CCCCC1(CCCC=CCCCCCC[C@@](C)(C(=O)N[C@@H](Cc3ccsc3)C(=O)N[C@@H](Cc3csc4ccccc34)C(=O)N[C@@H](CCC(N)=O)C(N)=O)NC(=O)[C@H](CC(N)=O)NC(=O)[C@H](Cc3ccccc3)NC(=O)[C@H](C)NC(=O)[C@H](C)NC(=O)[C@H](CCC(=O)O)NC(=O)[C@H](CC(=O)O)NC1=O)NC(=O)[C@H](C)NC(=O)[C@H](CC(=O)O)NC2=O (stereo partly drawn) [I-518, Ac-PL3-Asp-Ala-B5-Asp-Glu-Ala-Ala-Phe-Asn-S8-3Thi-BztA-Gln-NH2]",6.84,39 µM,,,,6.84,1.966,,
"CC(=O)N1CCC[C@]12CC=CCCCC1(CCCC=CCCCCCC[C@@](C)(C(=O)N[C@@H](Cc3ccccc3)C(=O)N[C@@H](Cc3csc4ccccc34)C(N)=O)NC(=O)[C@H](CC(N)=O)NC(=O)[C@H](Cc3ccccc3)NC(=O)[C@H](C)NC(=O)[C@H](C)NC(=O)[C@H](CCC(=O)O)NC(=O)[C@H](CC(=O)O)NC1=O)NC(=O)[C@H](CC(C)(C)C)NC(=O)[C@H](CC(=O)O)NC2=O (stereo partly drawn) [I-713, Ac-PL3-Asp-Npg-B5-Asp-Glu-Ala-Ala-Phe-Asn-S8-Phe-BztA-NH2]",7.15,48 µM,,,,7.15,2.851,,
"CC(=O)N1CCC[C@]12CC=CCCCC1(CCCC=CCCCCCC[C@@](C)(C(=O)N[C@@H](Cc3ccccc3)C(=O)N[C@@H](Cc3ccc4ccccc4c3)C(=O)N[C@@H](CCC(N)=O)C(N)=O)NC(=O)[C@H](C(C)C)NC(=O)[C@H](Cc3ccccc3)NC(=O)[C@H](C)NC(=O)[C@H](C)NC(=O)[C@H](CCC(=O)O)NC(=O)[C@H](CC(=O)O)NC1=O)NC(=O)[C@H](C)NC(=O)[C@H](CC(=O)O)NC2=O (stereo partly drawn) [I-140, Ac-PL3-Asp-Ala-B5-Asp-Glu-Ala-Ala-Phe-Val-S8-Phe-2NapA-Gln-NH2]",,,2.19,,48 µM,,,5.64,
"CC(=O)N1CCC[C@]12CC=CCCCC1(CCCC=CCCCCCC[C@@](C)(C(=O)N[C@@H](Cc3ccccc3)C(=O)N[C@@H](Cc3csc4ccccc34)C(=O)N[C@@H](CCC(N)=O)C(N)=O)NC(=O)[C@H](CC(N)=O)NC(=O)[C@H](Cc3ccsc3)NC(=O)[C@H](C)NC(=O)[C@H](C)NC(=O)[C@H](CCC(=O)O)NC(=O)[C@H](CC(=O)O)NC1=O)NC(=O)[C@H](C)NC(=O)[C@H](CC(=O)O)NC2=O (stereo partly drawn) [I-449, Ac-PL3-Asp-Ala-B5-Asp-Glu-Ala-Ala-3Thi-Asn-S8-Phe-BztA-Gln-NH2]",7.28,30 µM,,,,7.28,1.998,,
"CC(=O)N1CCC[C@]12CC=CCCCC1(CCCC=CCCCCCC[C@@](C)(C(=O)N[C@@H](Cc3ccccc3)C(=O)N[C@@H](Cc3csc4ccccc34)C(=O)N[C@@H](Cc3c[nH]cn3)C(N)=O)NC(=O)[C@H](CC(N)=O)NC(=O)[C@H](Cc3ccccc3)NC(=O)[C@H](C)NC(=O)[C@H](C)NC(=O)[C@H](CC(=O)O)NC(=O)[C@H](CC(=O)O)NC1=O)NC(=O)[C@H](CCC(C)C)NC(=O)[C@H](CC(=O)O)NC2=O (stereo partly drawn) [I-584, Ac-PL3-Asp-hLeu-B5-Asp-Asp-Ala-Ala-Phe-Asn-S8-Phe-BztA-His-NH2]",7.48,21 µM,,,,7.48,2.635,,
"CC(=O)N1CCC[C@]12CC=CCCCC1(CCCC=CCCCOC(=O)N3CC[C@@](C(=O)N[C@@H](Cc4ccsc4)C(=O)N[C@@H](Cc4csc5ccccc45)C(=O)N[C@H](C(N)=O)[C@@H](C)O)(C3)NC(=O)[C@H](CC(N)=O)NC(=O)[C@H](Cc3ccccc3)NC(=O)[C@H](C)NC(=O)[C@H](C)NC(=O)[C@H](CN(CC(=O)O)CC(F)(F)F)NC(=O)[C@H](CC(=O)O)NC1=O)NC(=O)[C@H](CC(C)(C)C)NC(=O)[C@H](CC(=O)O)NC2=O (stereo partly drawn) [I-943, Ac-PL3-Asp-Npg-B5-Asp-TfeGA-Ala-Ala-Phe-Asn-PyrS2-3Thi-BztA-Thr-NH2]",,49 µM,,5.70,,,2.071,,5.70
"CC(=O)N1CCC[C@]12CC=CCCCC1(CCCC=CCCCOC(=O)N3CC[C@@](C(=O)N[C@@H](Cc4ccsc4)C(=O)N[C@@H](Cc4csc5ccccc45)C(=O)N[C@@H](CO)C(N)=O)(C3)NC(=O)[C@H](CO)NC(=O)[C@H](Cc3ccccc3)NC(=O)[C@H](C)NC(=O)[C@H](C)NC(=O)[C@H](CN(CC(=O)O)CC(F)(F)F)NC(=O)[C@H](CC(=O)O)NC1=O)NC(=O)[C@H](CC(C)(C)C)NC(=O)[C@H](CC(=O)O)NC2=O (stereo partly drawn) [I-954, Ac-PL3-Asp-Npg-B5-Asp-TfeGA-Ala-Ala-Phe-Ser-PyrS2-3Thi-BztA-Ser-NH2]",,46 µM,,6.05,,,1.918,,6.05
"CC(=O)N1CCC[C@]12CC=CCCCC1(CCCC=CCCCOC(=O)N3CC[C@@](C(=O)N[C@@H](Cc4ccsc4)C(=O)N[C@@H](Cc4csc5ccccc45)C(=O)N[C@@H](CO)C(N)=O)(C3)NC(=O)[C@H](CC(C)C)NC(=O)[C@H](Cc3ccccc3)NC(=O)[C@H](C)NC(=O)[C@H](C)NC(=O)[C@H](Cc3cccc(C(=O)O)c3)NC(=O)[C@H](CC(=O)O)NC1=O)NC(=O)[C@H](CC(C)(C)C)NC(=O)[C@H](CC(=O)O)NC2=O (stereo partly drawn) [I-986, Ac-PL3-Asp-Npg-B5-Asp-3COOHF-Ala-Ala-Phe-Leu-PyrS2-3Thi-BztA-Ser-NH2]",,27 µM,,6.87,,,1.855,,6.87

# Source: patent publication US20240116985A1, “STAPLED PEPTIDES AND METHODS THEREOF” (priority 2020, published 2024)
